In the experiment the test system is human CD33+ myeloid, CD19+ B-lymphoid and CD34+ HSPC progeny. Kind of experiment: multi-lineage reconstitution (myeloid skewing) in 1T NSG mice 24 weeks post transplantation. It is filed as in vivo. How it is done:
FIG. 2. A preclinical model for studying adult human HSC ex vivo manipulation and gene transfer and its effect on LTRP. (Panel A) Freshly isolated or thawed mobilized peripheral blood (MPB) derived CD34+ cells were utilized for the study. Two different protocols were utilized for the study where lentivirus (LV) or γ-Retrovirus (RV) mediated gene transfer was performed at indicated time points. 0 h, 18-24 h, 36-42 h, and 72-96 h indicates the total amount of time where cells were exposed in the ex vivo culture after CD34 isolation before injection into NSG mice. (Panel B) After indicated time in culture and transduction, 1 million CD34+ starting equivalent cells were transplanted per NSG mouse after TBI intravenously (primary transplant=1T). Primary human engraftment and multi-lineage reconstitution was analyzed in mice at indicated time periods after bone marrow harvest at 6 and 12 weeks (wks) from left and right femurs, and after sacrifice at 24 wks, from all bones. A portion of cells were analyzed for FACS and the rest were depleted of mouse CD45+ cells and transplanted one to one, into secondary mice (secondary transplant=2T).
Human MPB derived CD34^+ cells either fresh or thawed were cultured and transduced with lentivirus (LV) or retrovirus (RV) expressing GFP for the indicated time points. Cells were harvested and phospho-p38MAPK was detected by flow cytometry. […] Data expressed as mean±SEM from 5 independent experiments (n=12-21 mice per group). […]
Next, the multi-lineage reconstitution was analyzed at 6, 12 and 24 weeks in BM of 1T animals, both of the untransduced (GFP^−) versus transduced (GFP^+) progeny. […]

Entries after “also recorded” stand apart in the source; their conditions may differ.

Take `Cc1ccc(-n2nc(C(C)(C)C)cc2NC(=O)Nc2ccc(OCCN3CCOCC3)c3ccccc23)cc1` [BIRB-796, 1-[5-tert-butyl-2-(4-methylphenyl)pyrazol-3-yl]-3-[4-(2-morpholin-4-ylethoxy)naphthalen-1-yl]urea]: the “myeloid skewing phenotype (overall)” value (1T mice 24 weeks post transplantation, listed as p38i) is recorded as “significantly revert this phenotype but only partially; also recorded: partially reverts”. For the same compound, the myeloid lineage skewing entry reads like this: (72-96 h RV group) “some improvement”; (HSPC transduced within the first 24 h with LV, cultures up to 72-96 h) “restored to levels similar to untransduced cells or 0 h controls”.

These data come from patent US20180325947A1, “USE OF MAPK INHIBITORS TO REDUCE LOSS OF HEMATOPOIETIC STEM CELLS DURING EX VIVO CULTURE AND/OR GENETIC MANIPULATION” (Children's Hospital Medical Center, priority 2015, published 2018).
